Values of other authors in patent publication US20040043089A1, “Buguzhi agent and composition and methods of preparing and administering the same” (priority 2002, published 2004).

settings: literature statement

Structure (SMILES) | Phototoxicity (in words)
COc1c(C(C)C)oc2cc3oc(=O)ccc3cc12 [peucedanin] | weak phototoxicity
CC(C)=CCc1c(O)ccc2ccc(=O)oc12 [osthenol] | weak phototoxicity
Cc1cc2cc3c(C)cc(=O)oc3c(C)c2o1 [Trioxsalen] | weak phototoxicity
COc1c2occc2c(OC)c2c(=O)cc(C)oc12 [khellin] | weak phototoxicity
COc1c2occc2cc2ccc(=O)oc12 [xanthotoxin, 8-methoxypsoralen] | phototoxic
O=c1ccc2ccc3occc3c2o1 [angelicin] | only weakly phototoxic
COc1c2ccoc2c(OC)c2oc(=O)ccc12 [isopimpinellin] | only weakly phototoxic
COc1c2ccoc2cc2oc(=O)ccc12 [bergapten, 5-methoxypsoralen] | phototoxic
